Data reported in patent US4701521A, “Method of effecting cellular uptake of molecules” (The Trustees of Boston University, priority 1979, dated 1987).
Where two headings read alike, the source gives them in different places.

Tests used:
Sarcoma S-180 monolayers = details: for Uptake, 1-min / Uptake, 60-min: 3 μg/ml ^125 I-PLL, 37° C.; for Uptake, 60-min (Corrected for Concentration of 79 nM): assuming uptake linear with concentration
Text: Poly-L-lysines of three different average molecular weights, i.e., 38,000, 115,000 and 230,000, were radio-iodinated using the Bolton-Hunter Reagent. See Bolton, A. E. and Hunter, W. M., Biochem J., 133, pp 529-38 (1973).

L929 fibroblasts = assay: Cytochemical localization of HRP reaction product (light and electron microscopy); assay type: cell-based, mouse
L929 fibroblast cells = assay: Cellular uptake of HRP and conjugates as cell-associated peroxidase activity; assay type: cell-based, mouse
Text: The rate of color development measured at 460 nm (ΔA460 nm /min) was used as an indication of enzymatic activity, and the enzymatic activity measured in the cell extract was used as an expression of cellular uptake.
Following exposure to HRP, or one of its two conjugates, the monolayers of L 929 mouse fibroblasts were washed and detached and the detached cells were washed as described in Example 3. The cells were then lysed and the cell extract used for measurement of enzymatic activity of HRP as described in Example 6.

[1] = test system: variant of the P 1798 lymphosarcoma, steroid-resistant, presumed MTX-sensitive; assay: Antitumor effect (tumor weight), steroid-resistant variant; assay type: in vivo, BALB/c mice; details: for Mean Tumor Weight: Mean ± SEM
Text: The inoculation developed into a palpable tumor within 7-8 days and killed the animal on the average within 14 days. Following inoculation, mice were divided into 4 groups of 4 or 5 mice.
Treatment consisted of one daily intravenous injection for 4 consecutive days, and was begun on Day 11 and Day 12 post-inoculation in experiment number 1 and 2 respectively. All animals were sacrificed one day after the last injection.

[2] = test system: BHK (DMN^ts) baby hamster kidney cell line; details: for Cellular Uptake in 60 min.: 3 μg/ml
Experimental: This experiment was done with a baby hamster kidney cell line (BHK) transformed by exposure to dimethylnitrosamine (DMN), growing with a non-malignant phenotype at 32° C. and a malignant phenotype at 38.5° C. This temperature-sensitive mutant line, called BHK (DMN^ts) was described by G. DeMayorca et al. Proc. Natl. Acad. Sci U.S.A., 70, 46-49 (1973). The cells were grown as monolayers in Dulbecco's high glucose medium. The transition from normal to transformed phenotype requires 3 to 4 population doublings or approximately 56 hours of growth at 38.5° C. The reversion to the normal, non-malignant phenotype likewise require 3 to 4 population doublings or approximately 112 hours of growth at 32° C. […] At time 0, the growth media of the confluent monolayers were replaced by serum free medium prewarmed to 37° C. and containing 3 μg/ml radioiodinated polymer. The monolayers were then incubated for 60 min. at 37° C.

L-929 fibroblasts = assay: Cytocidal effects of 6-MPRP and 6-MPRP-PLL; assay type: cell-based, mouse
Text: […] After exposure to the free or conjugated drug, the monolayers were kept growing for 2 days in standard growth medium, at which time no cytocidal effect could be detected.

[3] = Normal phenotype, PLL MW 125,000, PDL MW 130,000

## poly-L-lysine [PLL (MW 250,000)]
Sarcoma S-180 monolayers
  Uptake, 1-min: 153.7 ng/mg cell protein
  Uptake, 60-min: 695.4 ng/mg cell protein
  Uptake, 60-min (Corrected for Concentration of 79 nM): 4209 ng/mg cell protein

## poly-L-lysine [PLL (MW 38,000)]
Sarcoma S-180 monolayers
  Uptake, 1-min: 18.8 ng/mg cell protein
  Uptake, 60-min: 349.4 ng/mg cell protein
  Uptake, 60-min (Corrected for Concentration of 79 nM): 349 ng/mg cell protein

## horseradish peroxidase [HRP]
L929 fibroblasts; 60' exposure, HRP 150 μg/ml, HRP-PLL 1.5, 5 and 15 μg/ml
  staining of HRP reaction products, light microscopy: minimal staining
L929 fibroblasts; HRP at 100-time greater concentration than HRP-PLL
  HRP reaction product, electron microscopy: minimal amounts of stained reaction product
L929 fibroblast cells; Example 6, enzyme concentration in medium 150 μg/ml
  Cell-associated peroxidase activity: 0.14 ΔA460 nm /min/mg cell protein
L929 fibroblast cells; Example 6, enzyme concentration in medium 1500 μg/ml
  Cell-associated peroxidase activity: 1.55 ΔA460 nm /min/mg cell protein
L929 fibroblast cells; Example 10, 60-minute exposure, 1.5 μg/ml in medium
  Cell-associated peroxidase activity: 0 ΔA460 nm /min/mg cell protein
L929 fibroblast cells; Example 10, 60-minute exposure, 15 μg/ml in medium
  Cell-associated peroxidase activity: 0 ΔA460 nm /min/mg cell protein

## poly-L-lysine [PLL]
[1]; Experiment No. 1
  % of Controls (tumor weight): 113%
[1]; Experiment No. 1, daily i.v. 4 days from Day 11
  Mean Tumor Weight: 6.05 ± 0.52 g
[1]; Experiment No. 2
  % of Controls (tumor weight): 102%
[1]; Experiment No. 2, daily i.v. 4 days from Day 12
  Mean Tumor Weight: 6.13 ± 0.31 g
[2]
  Transformed/Normal (uptake ratio): 1.43
[2]; [3]
  Cellular Uptake in 60 min.: 525 ng/mg cell protein
[2]; Transformed phenotype
  Cellular Uptake in 60 min.: 750 ng/mg cell protein

## O=P(O)(O)OC[C@H]1O[C@@H](n2cnc3c(=S)[nH]cnc32)[C@H](O)[C@@H]1O [6-MPRP, 6-mercaptopurine ribosylphosphate]
L-929 fibroblasts; 2×10^-6 M
  growth inhibition, drug present for the duration of the experiment: both compounds had inhibiting effects
L-929 fibroblasts; 1 h exposure to combination of free 6-MPRP (1×10^-5 M) and free PLL
  cell growth after subculture and 7 additional days: grew at a rate undistinguichable from that of controls

## poly-D-lysine [PDL]
[2]
  Transformed/Normal (uptake ratio): 1
[2]; [3]
  Cellular Uptake in 60 min.: 685 ng/mg cell protein
[2]; Transformed phenotype
  Cellular Uptake in 60 min.: 680 ng/mg cell protein

## poly-L-lysine [PLL (MW 115,000)]
Sarcoma S-180 monolayers
  Uptake, 1-min: 112.3 ng/mg cell protein
  Uptake, 60-min: 513.3 ng/mg cell protein
  Uptake, 60-min (Corrected for Concentration of 79 nM): 1717 ng/mg cell protein
